Experimental data published in paper PMC3749120, “RasGRPs Are Targets of the Anti-Cancer Agent Ingenol-3-Angelate” (PLoS ONE, 2013).

How the values were obtained:
[1] = target: T1, RasGRP3 (Homo sapiens, UniProt Q8IV61); assay: [3H]PDBu radioligand binding
T1 construct: full-length
T1 sequence (Q8IV61 1-690): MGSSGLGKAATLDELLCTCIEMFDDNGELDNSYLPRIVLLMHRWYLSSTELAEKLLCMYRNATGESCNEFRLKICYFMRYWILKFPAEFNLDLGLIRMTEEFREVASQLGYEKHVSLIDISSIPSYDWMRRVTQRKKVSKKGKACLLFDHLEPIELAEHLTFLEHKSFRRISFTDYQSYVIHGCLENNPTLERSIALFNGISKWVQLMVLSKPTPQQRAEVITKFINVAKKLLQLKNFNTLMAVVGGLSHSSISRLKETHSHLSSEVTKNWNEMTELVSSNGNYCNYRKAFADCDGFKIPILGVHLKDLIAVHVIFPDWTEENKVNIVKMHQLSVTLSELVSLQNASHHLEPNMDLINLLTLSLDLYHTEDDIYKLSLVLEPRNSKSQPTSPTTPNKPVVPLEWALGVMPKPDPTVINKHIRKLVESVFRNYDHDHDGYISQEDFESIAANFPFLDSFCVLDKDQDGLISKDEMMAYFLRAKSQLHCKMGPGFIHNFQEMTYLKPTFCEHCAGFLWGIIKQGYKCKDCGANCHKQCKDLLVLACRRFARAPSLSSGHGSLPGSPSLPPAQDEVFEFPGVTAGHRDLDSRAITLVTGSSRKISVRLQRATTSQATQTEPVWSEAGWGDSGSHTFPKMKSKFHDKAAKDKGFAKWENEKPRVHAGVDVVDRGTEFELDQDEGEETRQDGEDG

[2] = target: T1, RasGRP3; assay: competition radioligand binding with [3H]phorbol […],13-dibutyrate, […]°C

| SMILES | Kd [1] [nM] | Kd [2] [nM] |
| --- | --- | --- |
| CCCC(=O)O[C@@H]1[C@@H](C)[C@@]2(O)[C@@H](C=C(CO)C[C@]3(O)C(=O)C(C)=C[C@@H]23)[C@@H]2C(C)(C)[C@]12OC(=O)CCC [PDBu, phorbol 12,13-dibutyrate] | 0.42 ± 0.03 | – |
| C/C=C(/C)C(=O)O[C@H]1C(C)=C[C@]23C(=O)[C@@H](C=C(CO)[C@@H](O)[C@]12O)[C@H]1[C@@H](C[C@H]3C)C1(C)C [I3A, Ingenol-3-angelate] | – | 0.045 ± 0.005 |
